Source: ChEMBL document CHEMBL1136642, “Substituted 4-methylquinolines as a new class of anti-tuberculosis agents” (Bioorg Med Chem Lett, 2003)
Converted amounts (≈) assume the structure as drawn.

What was measured:
[1] = system: Mycobacterium tuberculosis; experiment: In vitro anti-mycobacterial activity against Mycobacterium tuberculosis H37Rv; format: functional; parameters: concentration or dose not given beside the values
[2] = system: Mycobacterium tuberculosis; experiment: Minimum inhibitory concentration required to inhibit 90% of the inoculum of tuberculosis H37Rv; format: functional
[3] = system: Mycobacterium tuberculosis; experiment: Minimum inhibitory concentration against Mycobacterium tuberculosis strain, Erdman; format: functional
[4] = system: Mycobacterium tuberculosis; experiment: Minimum inhibitory concentration against Mycobacterium tuberculosis strain, CIP-R; format: functional
[5] = system: Mycobacterium tuberculosis; experiment: Minimum inhibitory concentration against Mycobacterium tuberculosis strain H37Rv, using Alamar assay; format: functional
[6] = system: Mycobacterium tuberculosis; experiment: Minimum inhibitory concentration against Mycobacterium tuberculosis strain, RMP-R; format: functional
[7] = system: Mycobacterium tuberculosis; experiment: Minimum inhibitory concentration against Mycobacterium tuberculosis strain, INH-R; format: functional
[8] = Ratio of minimum bactericidal concentration (MBC) against INH-R to that of minimum inhibitory concentration (MIC) to H37Rv in Alamar assay(Mycobacterium tuberculosis); format: functional
[9] = system: Mycobacterium tuberculosis; experiment: Minimum bactericidal concentration (MBC) against H37Rv; format: functional
[10] = system: Mycobacterium tuberculosis; experiment: Minimum inhibitory concentration against Mycobacterium tuberculosis strain, EMB-R; format: functional
[11] = Ratio of minimum bactericidal concentration (MBC) against H37Rv to that of minimum inhibitory concentration (MIC) to H37Rv in Alamar assay(Mycobacterium tuberculosis); format: functional
[12] = Ratio of minimum bactericidal concentration (MBC) against RMP-R to that of minimum inhibitory concentration (MIC) to H37Rv in Alamar assay(Mycobacterium tuberculosis); format: functional
[13] = system: Mycobacterium tuberculosis; experiment: Minimum bactericidal concentration (MBC) against RMP-R; format: functional
[14] = system: Mycobacterium tuberculosis; experiment: Minimum inhibitory concentration against Mycobacterium tuberculosis strain, KM-R; format: functional
Vero = experiment: In vitro cytotoxicity was determined against VERO cells; format: functional, cell-based; settings: Chlorocebus sabaeus
[15] = system: Mycobacterium tuberculosis; experiment: Minimum bactericidal concentration (MBC) against INH-R; format: functional

| Structure (SMILES) | Inhibition [1] [%] | MIC [2] [µg/mL] | also measured |
| --- | --- | --- | --- |
| Cc1cc(C2CCCCC2)nc2ccccc12 | 16 | > 6.25 |  |
| Cc1ccnc2ccccc12 | 0 | > 6.25 |  |
| Cc1cc(C2CC2)nc2ccccc12 | 29 | > 6.25 |  |
| CCCCCc1cc(C)c2ccccc2n1 | 24 | > 6.25 |  |
| CCCc1cc(C)c2cccc(CCC)c2n1 | 36 | > 6.25 |  |
| Cc1cc(C2CCC2)nc2ccccc12 | 67 | > 6.25 |  |
| Cc1cc(C(C)C)nc2ccccc12 | 57 | > 6.25 |  |
| Cc1cc(C2CCC2)nc2c(C3CCC3)cccc12 | 100 | 12.5 (≈ 49.7 µM) |  |
| CCCCCCc1cc(C)c2ccccc2n1 | 20 | > 6.25 |  |
| CCCc1cc(C)c2ccccc2n1 | 30 | > 6.25 |  |
| Cc1cc(C(C)C)nc2c(C(C)C)cccc12 | 71 | > 6.25 |  |
| CCCCc1cc(C)c2ccccc2n1 | 28 | > 6.25 |  |
| CCCCCc1cc(C)c2cccc(CCCCC)c2n1 | 29 | > 6.25 |  |
| CCCCCCc1cc(C)c2cccc(CCCCCC)c2n1 | 23 | > 6.25 |  |
| Cc1cc(C23CC4CC(CC(C4)C2)C3)nc2ccccc12 | 76 | > 69.2 |  |
| Cc1cc(C2CCCC2)nc2ccccc12 | 74 | > 6.25 |  |
| Cc1cc(C2CCCCC2)nc2c(C3CCCCC3)cccc12 | 53 | > 6.25 |  |
| CCCCc1cc(C)c2cccc(CCCC)c2n1 | 33 | 6.25 (≈ 24.5 µM) |  |
| Cc1cc(C2CCCC2)nc2c(C3CCCC3)cccc12 | 100 | > 6.25 | MIC [3]: 50 µg/mL (≈ 179 µM); MIC [4]: 12.5 µg/mL (≈ 44.7 µM); MIC [5]: 25 µg/mL (≈ 89.5 µM); MIC [6]: 12.5 µg/mL (≈ 44.7 µM); MIC [7]: 12.5 µg/mL (≈ 44.7 µM); Ratio [8]: 4 µg/mL; MBC [9]: 50 µg/mL (≈ 179 µM); MIC [10]: 12.5 µg/mL (≈ 44.7 µM); Ratio [11]: 2 µg/mL; Ratio [12]: 8 µg/mL; MBC [13]: 200 µg/mL (≈ 716 µM); MIC [14]: 25 µg/mL (≈ 89.5 µM); IC50 (Vero): > 50 µg/mL; MBC [15]: 100 µg/mL (≈ 358 µM) |
